Patent US20130309380A1, “METHODS FOR PRESERVING FRESH PRODUCE” (NatureSeal, Inc., priority 2003, published 2013)

What was measured:
Red Delicious apples [1] = experiment: Evaluation of sliced Red Delicious apples preserved with fresh produce preservative (scores); settings: for Color / Flavor / Moistness / Texture: scale 0-10; for color/appearance score: scale to 10
Method: (§1) The texture, flavor, and moistness of the fruit were evaluated by tasting fruit samples. The color and/or appearance was also evaluated by visual inspection. The color, texture, moistness and flavor were then evaluated according to a scale of either 1 to 10, with 10 being the value assigned to a freshly cut piece of comparative fruit or vegetable. A value of less than 7 is not acceptable.
(§2) Whole Red Delicious apples were rinsed with tap water, sanitized with a sodium hypochlorite solution containing 100 ppm chlorine, then cored and sliced. The apple slices were immersed in water for 0.5 to 2 minutes. Then the apple slices were dipped into produce preservative solution containing 4% ascorbic acid and 1.59% K2CO3 having a pH 5.69 for 1 minute. The slices were removed from the solution and drained for 1-2 minutes, sealed in polyethylene bags, and stored at 2-5° C. For controls, sliced apples either not treated or were dipped into either 4% ascorbic acid with 0.66% NaOH to adjust the pH to 4.45. For comparison, sliced apples were dipped into a solution containing 4% ascorbic acid and 1.22% Na2CO3 and having a pH of 5.58.
(§3) The apples were evaluated and scored on a scale of 0-10 at time intervals. A score of 10 means that the fruit's color and appearance is as good as fresh cut fruit. A score of 7 is the minimum acceptable appearance. Hardness was measured with QTS25.
Red Delicious apples and Granny Smith apples were preserved with the fresh produce preservative as in Example 1 a, except that the preservative solution contained 4% ascorbic acid and 1% Li2CO3.

Red Delicious apples [2] = experiment: Hardness of sliced Red Delicious apples measured with QTS25
Method: (§4) The firmness or hardness of the fruit is the force required for a probe to penetrate the fruit a given distance into the fruit. The firmness is determined using a Quality and Test System 25 and TA 40 probe from Stevens Company. The TA 40 probe a black acetate, 4.5 mm diameter, 20 mm long rod probe having a flat end. The following settings were employed in the QTS system: the test type is a compression test of one cycle, 0 second hold time, 0 second recovery, 5 g trigger point, 30 mm/min test speed, target unit distance, and a target value of 3 mm. The apple pieces were 1 cm thick.
as §2, §3

Bartlett pears = experiment: Hardness of sliced Bartlett pears
Method: as §4, §2
Bartlett pears were preserved with the fresh produce preservative as in Example 1a, with preservative solution that contained 4% ascorbic acid and 1.59% K2-CO3. For comparison, pears were treated with a comparative solution that contained 4% ascorbic acid and 1.22% Na2CO3.

Granny Smith apples = experiment: Evaluation of sliced Granny Smith apples preserved with fresh produce preservative (scores); settings: scale to 10
Hass avocadoes = experiment: Evaluation of sliced Hass avocadoes preserved with fresh produce preservative (scores)
Method: as §1, §2
Hass avocadoes were preserved with the fresh produce preservative as in Example 1a, except that the preservative solution contained 9.3% ascorbic acid and 5.7% MnCl2.4H2O.
Sliced Hass avocadoes were preserved with the fresh produce preservative as in Example la, except that the preservative solution contained 6.5% ascorbic acid and 3.5% potassium chloride. For control, a 7% ascorbic acid solution was used.

Red Delicious apples [3] = experiment: Evaluation of sliced Red Delicious apples (Examples 14 and 15, scores)
Method: The texture, flavor, and moistness of the fruit were evaluated by tasting fruit samples. The color and/or appearance was also evaluated by visual inspection. […] Then the apple slices were dipped for 1 minute into the following solutions: 3% ascorbic acid and 0.8% NH4Cl. For comparision, untreated slices were used as well as apple slices treated with 3% ascorbic acid or 2% ascorbic acid. The apples were removed, drained for 1-2 minutes, sealed in 2 mil, polyethylene bags, and stored at 2-5° C. Red Delicious apples were preserved with the fresh produce preservative as in Example 14a, except that the preservative solution contained 3.0% ascorbic acid and 0.8% CuSO4.

`O=C1O[C@H]([C@@H](O)CO)C(O)=C1O` [Ascorbic Acid, ascorbic acid] was tested, and the Color (Red Delicious apples [1]; 0 hour) was 10, the Flavor (Red Delicious apples [1]; 0 hour) was 5 and the Moistness (Red Delicious apples [1]; 0 hour) was 10. For the same molecule, the Texture (Red Delicious apples [1]; 0 hour) was 10, the Color (Red Delicious apples [1]; 1 week at 2-5° C.) was 9.6 and the Flavor (Red Delicious apples [1]; 1 week at 2-5° C.) was 7. The Moistness (Red Delicious apples [1]; 1 week at 2-5° C.) was 10, the Texture (Red Delicious apples [1]; 1 week at 2-5° C.) was 7.8 and the color/appearance score (Red Delicious apples [1]; 1 week) was 6. The Color (Red Delicious apples [1]; 2 week at 2-5° C.) was 8.4, the Flavor (Red Delicious apples [1]; 2 week at 2-5° C.) was 7 and the Moistness (Red Delicious apples [1]; 2 week at 2-5° C.) was 9. It also gave a Texture (Red Delicious apples [1]; 2 week at 2-5° C.) of 7, a Color (Red Delicious apples [1]; 1 day at 2-5° C.) of 10 and a Flavor (Red Delicious apples [1]; 1 day at 2-5° C.) of 8. For the same molecule, the Moistness (Red Delicious apples [1]; 1 day at 2-5° C.) was 10, the Texture (Red Delicious apples [1]; 1 day at 2-5° C.) was 9.8 and the color/appearance score (Red Delicious apples [1]; 24 hours (app)) was 9. The color/appearance score (Red Delicious apples [1]; 3 days) was 9, the Hardness (Red Delicious apples [2]; 0 hour) was 2083 and the Hardness (Red Delicious apples [2]; 1 week at 2-5° C.) was 1578. The Hardness (Red Delicious apples [2]; 2 week at 2-5° C.) was 1072, the “Hardness” value (Bartlett pears; 0 hour) was 2215 g and the “Hardness” value (Bartlett pears; 1 week) was 315 g. For the same molecule, the “Hardness” value (Bartlett pears; 2 weeks) was 79 g, the color/appearance score (Granny Smith apples; 1 week) was 6 and the color/appearance score (Granny Smith apples; 1 day) was 10. It also gave a color/appearance score (Granny Smith apples; 3 days) of 10, a color/appearance score (Hass avocadoes; 1 day, scale to 10 (Table 6), listed as 6% Ascorbic Acid control, 6% Ascorbic Acid control) of 6 and a color/appearance score (Hass avocadoes; 1 day, scale to 10 (Table 6), listed as 7% Ascorbic Acid control, 7% Ascorbic Acid control) of 7. The color/appearance score (Hass avocadoes; 1 day, scale to 10 (Table 6), listed as 8% Ascorbic Acid control, 8% Ascorbic Acid control) was 8.5, the color/appearance score (Hass avocadoes; 1 day, scale to 10 (Table 7)) was 7 and the color/appearance score (Hass avocadoes; 2 days, scale to 10 (Table 7)) was 6. For the same molecule, the color/appearance score (Hass avocadoes; 4 days, scale to 10 (Table 6)) was 6, the color/appearance score (Red Delicious apples [3]; 1 hour, scale to 10 (Table 15)) was 10 and the color/appearance score (Red Delicious apples [3]; 1 hour, scale to 10 (Table 16)) was 10. The color/appearance score (Red Delicious apples [3]; 24 hours, scale to 10 (Table 15), listed as 2% Ascorbic Acid Control, 2% Ascorbic Acid control dip) was 5.33, the color/appearance score (Red Delicious apples [3]; 24 hours, scale to 10 (Table 15), listed as 3% Ascorbic Acid Control, 3% Ascorbic Acid control dip) was 6 and the color/appearance score (Red Delicious apples [3]; 24 hours, scale to 10 (Table 16), listed as 2% Ascorbic Acid Control, 2% Ascorbic Acid control) was 5. It also gave a color/appearance score (Red Delicious apples [3]; 24 hours, scale to 10 (Table 16), listed as 3% Ascorbic Acid Control, 3% Ascorbic Acid control) of 6, a color/appearance score (Red Delicious apples [3]; Day 3, scale to 10 (Table 15), listed as 2% Ascorbic Acid Control, 2% Ascorbic Acid control dip) of 5 and a color/appearance score (Red Delicious apples [3]; Day 3, scale to 10 (Table 15), listed as 3% Ascorbic Acid Control, 3% Ascorbic Acid control dip) of 6. For the same molecule, the color/appearance score (Red Delicious apples [3]; Day 3, scale to 10 (Table 16), listed as 2% Ascorbic Acid Control, 2% Ascorbic Acid control) was 5, the color/appearance score (Red Delicious apples [3]; Day 3, scale to 10 (Table 16), listed as 3% Ascorbic Acid Control, 3% Ascorbic Acid control) was 6 and the color/appearance score (Red Delicious apples [3]; Day 4, scale to 10 (Table 15), listed as 2% Ascorbic Acid Control, 2% Ascorbic Acid control dip) was 6. It also gave a color/appearance score (Red Delicious apples [3]; Day 4, scale to 10 (Table 15), listed as 3% Ascorbic Acid Control, 3% Ascorbic Acid control dip) of 4, a color/appearance score (Red Delicious apples [3]; Day 5, scale to 10 (Table 15), listed as 2% Ascorbic Acid Control, 2% Ascorbic Acid control dip) of 6 and a color/appearance score (Red Delicious apples [3]; Day 5, scale to 10 (Table 15), listed as 3% Ascorbic Acid Control, 3% Ascorbic Acid control dip) of 4. The color/appearance score (Red Delicious apples [3]; Day 6, scale to 10 (Table 15), listed as 2% Ascorbic Acid Control, 2% Ascorbic Acid control dip) was 6 and the color/appearance score (Red Delicious apples [3]; Day 6, scale to 10 (Table 15), listed as 3% Ascorbic Acid Control, 3% Ascorbic Acid control dip) was 4.
